According to article PMC12952243, “Dual targeting of the mitochondrial Lon peptidase 1 and the chymotrypsin-like proteasome activity as a potential therapeutic strategy in malignant astrocytoma models” (Pharmacological research, 2024):

molecular target: T1, Mitochondrial Lon Peptidase 1 (LonP1) (Homo sapiens, UniProt P36776); assay: FITC-casein fluorescent protease assay with immunopurified LonP1; type: biochemical
T1 construct: LonP1 immunopurified from mitochondria of HOG cells overexpressing LonP1
T1 sequence (P36776 68-959): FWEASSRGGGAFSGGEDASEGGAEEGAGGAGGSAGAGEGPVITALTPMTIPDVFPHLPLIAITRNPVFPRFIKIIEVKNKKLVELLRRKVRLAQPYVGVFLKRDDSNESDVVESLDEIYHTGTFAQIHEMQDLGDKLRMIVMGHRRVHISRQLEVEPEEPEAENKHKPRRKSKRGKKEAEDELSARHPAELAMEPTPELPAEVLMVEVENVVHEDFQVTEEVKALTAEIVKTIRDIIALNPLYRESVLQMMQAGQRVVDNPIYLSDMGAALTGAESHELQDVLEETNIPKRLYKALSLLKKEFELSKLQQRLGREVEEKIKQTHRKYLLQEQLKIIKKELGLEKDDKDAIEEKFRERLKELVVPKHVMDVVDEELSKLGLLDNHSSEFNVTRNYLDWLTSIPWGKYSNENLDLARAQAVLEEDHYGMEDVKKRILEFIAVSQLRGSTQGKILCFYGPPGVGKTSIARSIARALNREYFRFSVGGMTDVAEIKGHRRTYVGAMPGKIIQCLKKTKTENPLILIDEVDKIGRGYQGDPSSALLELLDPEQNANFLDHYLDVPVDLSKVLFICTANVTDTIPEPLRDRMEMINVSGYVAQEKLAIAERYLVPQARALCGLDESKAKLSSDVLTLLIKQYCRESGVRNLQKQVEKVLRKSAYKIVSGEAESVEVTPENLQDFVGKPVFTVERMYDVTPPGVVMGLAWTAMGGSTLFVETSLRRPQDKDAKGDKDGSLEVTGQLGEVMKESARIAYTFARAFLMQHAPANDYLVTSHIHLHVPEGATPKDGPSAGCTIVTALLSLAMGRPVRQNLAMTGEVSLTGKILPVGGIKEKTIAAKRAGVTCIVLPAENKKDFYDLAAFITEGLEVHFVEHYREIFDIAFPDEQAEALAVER

Row | IC50 [µM] | Structure (SMILES)
1 | 31.2 | O=C(Nc1ccc(O)cc1)c1cc2cc(Cl)ccc2oc1=O [BT317]
2 | 50 | Cc1cc(NC(C#N)C2=Cc3cc(Cl)cc(Cl)c3OC2c2ccccc2)ccc1B1OC(C)(C)C(C)(C)O1 (stereo not shown) [BT395]
3 | 34.5 | Cc1cc(NC(C#N)C2=Cc3cc(Cl)cc(Cl)c3OC2c2ccccc2)ccc1[B-](F)(F)F (stereo not shown) [BT397]
4 | 124 | CC1(C)OB(c2cccc(N(Cc3ccccc3)C(=O)CCl)c2)OC1(C)C [BT399]
